Columns and labels:
Format in all cases: toxicity, cell-based
Fibroblast = experiment: Incucyte cell viability with human fibroblast; settings: 10 µM, compound concentration 10 uM
HEK-293T = experiment: Incucyte cell viability with HEK293T; settings: human, 10 µM, compound concentration 10 uM
U2OS = experiment: Incucyte cell viability with U2OS; settings: human, 10 µM, compound concentration 10 uM
[1] = 0 h, replicate number 1, timepoint 0 hours
[2] = 0 h, replicate number 2, timepoint 0 hours
[3] = 6 h, replicate number 1, timepoint 6 hours
[4] = 6 h, replicate number 2, timepoint 6 hours
[5] = 12 h, replicate number 1, timepoint 12 hours
[6] = 18 h, replicate number 1, timepoint 18 hours
[7] = 18 h, replicate number 2, timepoint 18 hours
[8] = 24 h, replicate number 1, timepoint 24 hours
[9] = 24 h, replicate number 2, timepoint 24 hours
[10] = 12 h, replicate number 2, timepoint 12 hours
Also: unitless GR value; below 1 slowed growth and below 0 cell loss.

SMILES | Growth Rate (Fibroblast; [1]) | Growth Rate (Fibroblast; [2]) | Growth Rate (Fibroblast; [3]) | Growth Rate (Fibroblast; [5]) | Growth Rate (Fibroblast; [6]) | Growth Rate (Fibroblast; [7]) | Growth Rate (Fibroblast; [8]) | Growth Rate (Fibroblast; [9]) | Growth Rate (HEK-293T; [1]) | Growth Rate (HEK-293T; [2]) | Growth Rate (HEK-293T; [5]) | Growth Rate (HEK-293T; [10]) | Growth Rate (U2OS; [2]) | Growth Rate (U2OS; [6]) | Growth Rate (U2OS; [3]) | Growth Rate (HEK-293T; [3]) | Growth Rate (HEK-293T; [6]) | Growth Rate (HEK-293T; [7]) | Growth Rate (HEK-293T; [8]) | Growth Rate (HEK-293T; [9]) | further results
CCCCNNC(=O)c1ccc(Br)cc1 | 0.73 | 0.26 | -0.07 | 0.37 | 0.74 | 0.93 | 0.99 | 0.91 | 0.97 | 0.79 | 0.93 | 0.77 | -0.23 | 0.94 | – | – | – | – | – | – | Growth Rate (Fibroblast; [4]): 0.86; Growth Rate (U2OS; [10]): 0.99; Growth Rate (U2OS; [9]): 0.91
N#Cc1cc(F)cc(-c2nc(-c3ccc(F)cn3)no2)c1 | – | 0.68 | -0.02 | 0.63 | 0.84 | – | 0.6 | – | 0.85 | 0.21 | – | – | -0.87 | 0.57 | -0.32 | – | – | – | – | – | Growth Rate (U2OS; [4]): 0.62; Growth Rate (U2OS; [5]): 0.46; Growth Rate (U2OS; [10]): 0.86; Growth Rate (U2OS; [8]): 0.65
O=C(c1cc(C2CC2)on1)N(C1CCCCC1)C1CCCCC1 | 0.81 | – | -0.36 | 0.15 | 0.82 | 0.86 | 0.78 | 0.8 | – | 0.08 | 0.55 | 0.56 | – | – | 0.89 | 0.27 | 0.64 | 0.68 | 0.74 | 0.67 | Growth Rate (Fibroblast; [10]): 0.97; Growth Rate (U2OS; [1]): 0.64; Growth Rate (U2OS; [4]): 0.71; Growth Rate (U2OS; [5]): 0.7; Growth Rate (U2OS; [9]): 1
O=C(O)Cc1ccccc1Nc1c(Cl)cccc1Cl [DICLOFENAC] | 0.78 | 0.28 | 0.86 | – | – | – | – | – | – | 0.45 | – | – | -1 | – | – | 0.97 | – | – | – | – | Growth Rate (U2OS; [4]): 0.98
CC(C)CCC[C@@H](C)[C@H]1CC[C@H]2[C@@H]3[C@H](O)C=C4C[C@@H](O)CC[C@]4(C)[C@H]3CC[C@]12C | – | -0.09 | 0.24 | 0.24 | 0.52 | 0.84 | 0.5 | 0.43 | 0.95 | -0.21 | – | – | 0.03 | – | 0.98 | – | 0.84 | – | 0.85 | 0.96 | Growth Rate (Fibroblast; [4]): 0.56; Growth Rate (Fibroblast; [10]): 0.91
CN1C[C@H](C(=O)N[C@]2(C)O[C@@]3(O)[C@@H]4CCCN4C(=O)[C@H](Cc4ccccc4)N3C2=O)C[C@@H]2c3cccc4[nH]cc(c34)C[C@H]21.CS(=O)(=O)O [DIHYDROERGOTAMINE MESYLATE] | -0.33 | -0.55 | – | – | – | – | – | – | -0.57 | -0.38 | 0.96 | – | – | 0.95 | 0.44 | – | 0.98 | – | – | – | Growth Rate (U2OS; [1]): 0.01
CC(/C=C1\SC(=S)N(CCCC(=O)Nc2ccc(C(=O)O)c(O)c2)C1=O)=C\c1ccccc1 | – | -0.04 | 0.97 | – | – | – | 0.83 | – | 0.57 | 0.54 | – | – | -1 | – | – | – | – | – | – | – | Growth Rate (U2OS; [1]): 0.71; Growth Rate (U2OS; [4]): 0.79
CN[C@@H]1C[C@H]2O[C@@](C)([C@@H]1OC)n1c3ccccc3c3c4c(c5c6ccccc6n2c5c31)C(=O)NC4 [STAUROSPORINE] | 0.05 | -0.7 | – | 0.41 | 0 | 0.61 | -0.13 | 0.35 | -0.75 | -0.46 | – | – | – | 0.79 | – | – | 0.33 | 0.42 | 0.11 | 0.09 | Growth Rate (U2OS; [7]): 0.69; Growth Rate (U2OS; [8]): 0.65; Growth Rate (U2OS; [9]): 0.49
C=CCNc1ncnc2ccc(Br)cc12 | – | 0.05 | – | 0.47 | 0.3 | 0.98 | 0.45 | 0.75 | 0.98 | 0.64 | 0.84 | – | 0.44 | 0.82 | – | 0.57 | 0.58 | 0.9 | 0.91 | 0.96 | Growth Rate (U2OS; [5]): 0.96; Growth Rate (U2OS; [10]): 0.77; Growth Rate (U2OS; [7]): 0.85; Growth Rate (U2OS; [8]): 0.97; Growth Rate (U2OS; [9]): 0.9
CN(C(=O)/C=C/c1ccoc1)[C@@H]1CC[C@@]2(O)[C@H]3Cc4ccc(O)c5c4[C@@]2(CCN3CC2CC2)[C@H]1O5 [NALFURAFINE] | – | 0.55 | – | – | – | – | – | – | 0.87 | 0.49 | – | 0.91 | -0.09 | 0.68 | 0.82 | – | – | – | – | 0.91 | Growth Rate (U2OS; [1]): 0.56; Growth Rate (U2OS; [10]): 1; Growth Rate (U2OS; [7]): 0.88; Growth Rate (U2OS; [8]): 0.77
O=C(O)CCCCCC[C@H]1C(=O)NC(=O)N1CCC(O)C1CCCCC1 (stereo partly specified) | 0.25 | 0.26 | – | – | – | – | – | – | – | 0.31 | 0.73 | 0.68 | – | 0.81 | 0.65 | 0.84 | 0.88 | 0.81 | 0.91 | – | Growth Rate (Fibroblast; [10]): 0.91; Growth Rate (HEK-293T; [4]): 0.93; Growth Rate (U2OS; [1]): -0.44
CC(COc1ccccc1)N(CCCl)Cc1ccccc1.Cl (stereo unspecified) [PHENOXYBENZAMINE HYDROCHLORIDE] | – | – | 0.45 | 0.55 | 0.49 | – | 0.51 | – | – | 0.07 | 0.28 | – | 0.42 | 0.94 | – | 0.03 | 0.49 | 1 | 0.56 | – | –
CC[C@@H](C)Nc1nc(C)nc2c(-c3ccc(OC)nc3C)c(C)nn12 [PEXACERFONT] | – | 0.28 | -0.25 | -0.18 | -0.19 | 0.94 | -0.13 | 1 | 0.85 | 0.62 | – | 0.9 | -1 | 0.67 | 1 | – | 0.93 | – | 0.84 | – | Growth Rate (Fibroblast; [4]): -0.51; Growth Rate (Fibroblast; [10]): 0.49; Growth Rate (U2OS; [5]): 0.45
